Values of other authors in patent US5679660A, “Pharmaceutical composition comprising diclofenac and cyclodextrin” (Farmarc Nederland BV, priority 1993, dated 1997).

Conditions: literature, Backensfeld and Mueller 1990

OC[C@H]1O[C@@H]2O[C@H]3[C@H](O)[C@@H](O)[C@@H](O[C@H]4[C@H](O)[C@@H](O)[C@@H](O[C@H]5[C@H](O)[C@@H](O)[C@@H](O[C@H]6[C@H](O)[C@@H](O)[C@@H](O[C@H]7[C@H](O)[C@@H](O)[C@@H](O[C@H]8[C@H](O)[C@@H](O)[C@@H](O[C@H]1[C@H](O)[C@H]2O)O[C@@H]8CO)O[C@@H]7CO)O[C@@H]6CO)O[C@@H]5CO)O[C@@H]4CO)O[C@@H]3CO [Beta-cyclodextrin]
effect on aqueous solubility of diclofenac: increase the aqueous solubility
